Data on three compounds can be found in patent publication US10894777B2, “TG2 inhibitor piperazine compounds and uses thereof” (UNIVERSITY OF OTTAWA, priority 2016, dated 2021).

The test system of one assay is EGFR. The assay is described as follows: Immunoblot of EGFR and phospho-EGFR in GBM cells. The class given is cell-based, human. As for the experimental part:
In (A) it is shown that shorter treatments with NC9 had no effect on EGF-stimulated EGFR phosphorylation in U87 cells. U87 cells were treated with 10 μM NC9 or DMSO control for 24 h followed by 10 min of 100 ng/mL EGF treatment. At the end of the treatments, cells were lysed and 20 μg of lysates from U87 cells were blotted for phospho-EGFR, EGFR and tubulin. […] Cell medium was changed every 24 h and fresh inhibitors or DMSO was added to the medium. At the end of the treatment, cells were lysed and 20 μg of lysates from cells U87 and T98G were blotted for phospho-EGFR, EGFR and actin.
Immunoblotting. Cells were rinsed in ice-cold phosphate-buffered saline (PBS) and collected in lysis buffer, containing 0.5% NP-40, 150 mM NaCl, 10 mM Tris-Cl (pH 7.4), 1 mM EGTA, 1 mM EDTA, 1 mM phenylmethylsulphonyl fluoride, 1 μM okadaic acid, and 10 μg/mL each of aprotinin, leupeptin, and pepstatin. Samples were sonicated on ice and centrifuged at 16,000 g for 10 min. Protein concentrations of supernatants were then determined by the bicinchoninic acid assay with bovine serum albumin (BSA) as a standard and samples were diluted to a final concentration of 1 mg/mL with 2× reducing stop buffer (0.25 M Tris-HCl, pH 6.8, 5 mM EDTA, 5 mM EGTA, 25 mM dithiothreitol, 2% SDS, 10% glycerol, and bromophenol blue as the tracking dye). […]

The next assay concerns TG2 level. Kind of assay: TG2 level immunoblot, SCC-13 spheroids. Particulars: 20 μM, 48 hours. Type of assay: cell-based, human. As for the experimental part:
In (A), SCC-13 cells (40,000) were plated in non-adherent six well dishes, grown for 8 days in spheroid medium, and then NC9 was added and spheroid number was monitored at 0-48 hours. In (B), spheroids were grown for 10 days, treated for 48 hours with indicated level of NC9 and photographed. In (C), SCC-13 cells were plated at 40,000 cells per well in non-adherent six well dishes and after 10 days the spheroids were treated with 0-20 μM NC9 for 0-72 hours before trypan blue exclusion viability assay. In (D), SCC-13 spheroids were grown for 10 days, treated with 0 or 20 μM NC9 for 48 hours, and TG2 level was assayed by immunoblot. In (E), SCC-13 cells were grown as monolayers in spheroid medium and TG2 activity was monitored by FC incorporation assay as outlined in the Materials and Methods for Example 7. In (F), SCC-13 cell 8 day spheroids were treated with […] NC9 and cells were harvested at the indicated times for immunoblot detection of procaspase 3 and cleaved caspase 3. In all panels, the values are mean±SEM, n=3, p<0.05.

Assay [1] addresses T1, TG2 (Homo sapiens, UniProt P21980).
T1 sequence (P21980 1-687): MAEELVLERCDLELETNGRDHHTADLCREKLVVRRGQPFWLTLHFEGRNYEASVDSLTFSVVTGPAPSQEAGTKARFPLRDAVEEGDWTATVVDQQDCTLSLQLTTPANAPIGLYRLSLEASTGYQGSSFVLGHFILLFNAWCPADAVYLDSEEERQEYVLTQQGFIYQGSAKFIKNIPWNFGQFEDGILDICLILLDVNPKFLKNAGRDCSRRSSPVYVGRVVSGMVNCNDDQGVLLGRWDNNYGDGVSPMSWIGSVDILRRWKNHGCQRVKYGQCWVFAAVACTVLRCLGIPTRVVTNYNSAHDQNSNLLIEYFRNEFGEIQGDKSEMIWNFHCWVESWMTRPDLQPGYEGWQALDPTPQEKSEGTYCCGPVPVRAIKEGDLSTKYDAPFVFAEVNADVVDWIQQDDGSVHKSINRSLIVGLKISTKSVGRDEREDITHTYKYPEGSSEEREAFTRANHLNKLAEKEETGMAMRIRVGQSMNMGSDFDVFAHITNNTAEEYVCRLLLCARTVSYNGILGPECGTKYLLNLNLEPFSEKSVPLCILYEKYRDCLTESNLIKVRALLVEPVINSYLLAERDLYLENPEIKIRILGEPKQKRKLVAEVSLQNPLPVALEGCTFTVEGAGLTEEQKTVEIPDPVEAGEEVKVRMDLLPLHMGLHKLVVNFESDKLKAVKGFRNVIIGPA
Kind of assay: Inhibition irreversibility (filtration, dilution, activity assay). The class given is biochemical. Particulars: after filtration over 10-kDa membrane and dilution. The text has this: Inhibition irreversibility.

The target of assay [2] is T1, TG2. Kind of assay: Kinetic inactivation of purified recombinant human TG2, continuous spectrophotometric activity assay (Examples 3, 10). Type of assay: biochemical. Details: made in house. The protocol: Kinetic studies were carried out in vitro, using purified recombinant human TG2 (Roy, I. et al., Protein Expr. Purif. 87: 41-46, 2013) and a direct, continuous spectrophotometric activity assay (Leblanc, A. et al., Biochemistry 40: 8335-8342, 2001).
Kinetics. Kinetic runs were performed at 25° C. in 100 mM MOPS buffer (pH 7.0) containing 3 mM CaCl2 and 50 μM EDTA. […] Stock solutions of the substrate and inhibitors were prepared in DMF such that the final concentration of this co-solvent was constant at 10% v/v. Reactions were initiated with the addition of enzyme with an activity of approximately 0.05 U/mL. Kinetic evaluation was carried out by the method of Stone and Hofsteenge (Stone, S. R. and Hofsteenge, J., Biochem. J. 230: 497-502, 1985). […] Observed first-order rate constants of inactivation were determined from non-linear regression, to a mono-exponential model. These rate constants were in turn fit to equation 1 by non-linear regression, providing the kinetic parameters
Kinetic parameters were determined as described above.

Where two headings read alike, the source gives them in different places.

For `C=CC(=O)NCCCC[C@H](NC(=O)OCc1ccccc1)C(=O)NCCOCCOCCNS(=O)(=O)c1cccc2c(N(C)C)cccc12` [NC9], the “phospho-EGFR and EGFR levels, longer treatment” value in the assay on EGFR (U87 and T98G cells, 10 μM, 48-72 h) was “decrease phospho-EGFR and EGFR levels in U87 cells, but not T98G cells”. In the assay with EGFR (U87 cells, 10 μM 24 h, then 100 ng/mL EGF 10 min), the “EGFR or phospho-EGFR levels, shorter treatment” value was “did not result in a decrease”. For the same compound, in the assay with TG2 level, the TG2 level entry is “not associated with reduced TG2 level”.
As to `C=CC(=O)NCCCC[C@H](NC(=O)OCc1ccccc1)C(=O)N1CCN(S(=O)(=O)c2cccc3c(N(C)C)cccc23)CC1` [VA4, (S)-benzyl(6-acrylamido-1-(4-((5-(dimethylamino)naphthalen-1-yl)sulfonyl)piperazin-1-yl)-1-oxohexan-2-yl)carbamate], the “recovered activity of inhibited hTG2” value on TG2 [1] is reported as “no recovered activity”.
For the compound `C=CC(=O)NCCCC[C@H](NC(=O)OCc1ccccc1)C(=O)N1CCN(C(=O)c2cc3ccc(O)cc3oc2=O)CC1` [VA5, (S)-Benzyl(6-acrylamido-1-(4-(7-hydroxy-2-oxo-2H-chromene-3-carbonyl)piperazin-1-yl)-1-oxohexan-2-yl)carbamate], at TG2 [2] (Table 4), the kinact is 0.0116 s⁻¹. The kinact/KI at TG2 [2] (read-out: kinact/KI (?M^−1min^−1), Table 1) is 130000 M⁻¹ min⁻¹; on TG2 [2] (read-out: kinact/Ki (μM^−1 min^−1), Table 4, for ^a no saturation observed, efficiency obtained from initial slope), 165000 M⁻¹ min⁻¹.
